Measured values: US7655671B2, “Morphinan derivatives, the quaternary ammonium salts thereof substituted in position 14, method for production and use thereof” (priority 2002, dated 2010)
Where a name gives a salt, the structure may show the parent alone. Read-outs that look alike come from different tables or passages of the source.

Columns and labels:
μ-receptors = molecular target: T1, μ-receptors (Mus musculus, UniProt P42866); assay: Antagonistic activity in the vas deferens preparation of the mouse using DAMGO; assay type: biochemical; design: Ke (vM) (μ-receptors): unit not given here
T1 construct: Vas Deferens Preparation of the Mouse; from tissue; host or cells: mouse vas deferens
T1 sequence (P42866 whole entry): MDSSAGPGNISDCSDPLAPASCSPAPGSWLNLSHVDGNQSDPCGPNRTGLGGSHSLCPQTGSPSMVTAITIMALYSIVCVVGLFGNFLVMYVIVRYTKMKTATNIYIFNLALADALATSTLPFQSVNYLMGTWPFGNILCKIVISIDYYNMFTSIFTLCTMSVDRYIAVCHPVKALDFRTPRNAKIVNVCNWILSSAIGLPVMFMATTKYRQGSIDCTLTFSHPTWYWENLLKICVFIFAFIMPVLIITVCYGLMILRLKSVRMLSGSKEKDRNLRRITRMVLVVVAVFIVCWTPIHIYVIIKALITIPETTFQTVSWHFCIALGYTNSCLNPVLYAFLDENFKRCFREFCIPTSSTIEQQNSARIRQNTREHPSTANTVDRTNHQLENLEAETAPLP

μ-opioid receptors = molecular target: T2, μ-opioid receptors (Rattus norvegicus, UniProt P33535); assay: Opioid receptor binding studies on rat's brain homogenisates with [3H]DAMGO
T2 construct: from tissue; host or cells: rat brain homogenate
T2 sequence (P33535 whole entry): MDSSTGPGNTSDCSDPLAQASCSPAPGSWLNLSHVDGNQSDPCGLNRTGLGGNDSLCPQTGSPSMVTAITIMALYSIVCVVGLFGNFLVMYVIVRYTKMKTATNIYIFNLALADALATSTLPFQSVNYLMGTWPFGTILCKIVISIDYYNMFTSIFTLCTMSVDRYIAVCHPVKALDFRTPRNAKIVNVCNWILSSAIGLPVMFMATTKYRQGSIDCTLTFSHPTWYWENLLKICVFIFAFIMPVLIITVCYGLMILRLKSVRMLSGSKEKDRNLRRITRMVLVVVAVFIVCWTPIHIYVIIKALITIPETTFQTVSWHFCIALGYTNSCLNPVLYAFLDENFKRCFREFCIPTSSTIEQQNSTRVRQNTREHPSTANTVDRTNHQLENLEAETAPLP

mice [1] = assay: animal or person; assay type: in vivo; settings: mouse tail flick test; for ED50 (μg/kg, sc) / ED50: subcutaneous application; for analgesic activity (in words) / ED50: sc; for ED50: read-out: ED50 (μg/kg, sc)
mice [2] = assay: Hot-plate test (analgesia); assay type: in vivo, mouse; settings: for ED50 (μg/kg, sc) / ED50: subcutaneous application; for ED50: Mus musculus, read-out: ED50 (μg/kg, sc); for ED50 / analgesic activity (in words): sc
Procedure: A test on mice (“hot-plate test”) was carried out as described earlier (E. L. May et al., J. Med. Chem. 2000; 43, 5030-5036).

rats = assay: Rat tail flick test (analgesia); assay type: in vivo; settings: for ED50 (μg/rat, icv): rats of 120 g; for ED50: sc, read-out: ED50 (μg/kg, sc)
Procedure: To determine the analgesic activity of quaternised compounds, a test on rats, the “Rat Tail Flick Test”, was used. The test was carried out as described earlier (Zs. Fürst et al., Eur. J. Pharmacol. 1993; 236: 209-215).

[3] = [3H]DAMGO as radio-ligand, rat's brain homogenisates, read-out: Ki (nM) (μ-receptors)
[4] = rat tail flick test, subcutaneous application
[5] = rat tail flick test, intracerebroventricular application

SMILES | ED50 (mice [1]) [µg/kg] | ED50 (mice [2]) [µg/kg] | melting point | Ki (μ-opioid receptors) [nM] | also measured
COc1c(O)ccc2c1[C@]13CCN(CC4CC4)[C@H](C2)[C@]1(OC)CCC(=O)C3 [3-hydroxycyprodime, reference compound] |  |  |  |  | Ke (vM) (μ-receptors) (μ-receptors; antagonistic Ke against DAMGO): 5.62; Ki (μ-opioid receptors; [3]): 6.15 nM; affinity to μ-opioid receptors (in words) (μ-opioid receptors; [3H]DAMGO, rat's brain homogenisates): clearly lower affinity
CO[C@@]12CCC(=O)[C@]3(C)Oc4c(O)ccc5c4[C@@]31CCN(C)[C@@H]2C5 [14-methoxymetopon, reference compound] |  |  |  |  | ED50 (μg/kg, sc) (mice [1]): 30 µg/kg; ED50 (μg/kg, sc) (mice [2]): 30 µg/kg; ED50 (μg/kg, sc) (rats; [4]): 7.2 µg/kg; Ki (μ-opioid receptors; [3]): 0.55 nM
COc1ccc2c3c1O[C@H]1C(=O)CC[C@@]4(OCCCc5ccccc5)[C@@H](C2)N(CCc2ccccc2)CC[C@]314 [Compound 4, 4,5α-epoxy-3-methoxy-17-(2-phenylethyl)-14β-(3-phenylpropyloxy)morphinan-6-one hydrochloride] | 84 | 60 |  |  | analgesic activity (in words) (mice [1]): somewhat lower analgesic activity; analgesic activity (in words) (mice [2]): somewhat lower analgesic activity
C=CCN1CC[C@]23c4c5ccc(O)c4O[C@H]2C(=O)CC[C@@]3(OCCCc2ccccc2)[C@H]1C5 [Compound 6, 17-allyl-4,5α-epoxy-3-hydroxy-14β-(3-phenylpropyloxy)morphinan-6-one hydrochloride] | 5.6 | 5.9 |  |  | 
O=C1CC[C@@]2(OCCCc3ccccc3)[C@H]3Cc4ccc(O)c5c4[C@@]2(CCN3CC2CCC2)[C@H]1O5 [Compound 7, 17-cyclobutylmethyl-4,5α-epoxy-3-hydroxy-14β-(3-phenylpropyloxy)morphinan-6-one hydrochloride] | 8.2 | 3.7 |  |  | 
O=C1CC[C@@]2(OCCCc3ccccc3)[C@H]3Cc4ccc(O)c5c4[C@@]2(CCN3CC2CC2)[C@H]1O5 [Compound 8, 17-cyclopropylmethyl-4,5α-epoxy-3-hydroxy-14β-(3-phenylpropyloxy)morphinan-6-one hydrochloride] | 3.2 | 2.3 |  |  | Ki (μ-opioid receptors; [3]): 0.34 nM
O=C1CC[C@@]2(OCCCc3ccccc3)[C@H]3Cc4ccc(O)c5c4[C@@]2(CCN3CCc2ccccc2)[C@H]1O5 [Compound 9, 4,5α-epoxy-3-hydroxy-17-(2-phenylethyl)-14β-(3-phenylpropyloxy)morphinan-6-one hydrochloride] |  | 11.7 |  |  | 
O=C1CC[C@@]2(OCCCc3ccccc3)C3Cc4ccc(O)c5c4[C@@]2(CCN3CC2CCCO2)[C@H]1O5 (stereo partly drawn) [Compound 10, 4,5α-epoxy-17-[2-((R,S)-tetrahydrofuran-2-yl)methyl]-3-hydroxy-14β-(3-phenylpropyloxy)morphinan-6-one hydrochloride] | 7 | 1.3 |  |  | 
CCCN1CC[C@]23c4c5ccc(O)c4O[C@H]2C(=O)CC[C@@]3(OCCCc2ccccc2)[C@H]1C5 [Compound 11, 4,5α-epoxy-3-hydroxy-14β-(3-phenylpropyloxy)-17-propylmorphinan-6-one hydrochloride] | 1.6 | 1.7 |  |  | 
C#CCOc1ccc2c3c1O[C@@]1(C)C(=O)CC[C@@]4(OCCCc5ccccc5)[C@@H](C2)N(C)CC[C@]314.Cl [Compound 17, 4,5α-epoxy-5β,17-dimethyl-14β-[(3-phenylpropyl)oxy]-3-[(prop-2-inyl)oxy]morphinan-6-one hydrochloride] |  |  |  |  | ED50 (μg/kg, sc) (mice [1]): 21 µg/kg; analgesic activity (in words) (mice [2]): surprisingly high; ED50 (μg/kg, sc) (mice [2]): 38 µg/kg; Ki (μ-opioid receptors; [3]): 0.73 nM
COc1ccc2c3c1O[C@@]1(C)C(=O)CC[C@@]4(OCCCc5ccccc5)[C@@H](C2)N(C)CC[C@]314 [Compound 17a, 4,5α-epoxy-3-methoxy-5β,17-dimethyl-14β-[(3-phenylpropyl)oxy]morphinan-6-one] | 4.4 | 2.6 | 126 to 128 °C | 0.62 | 
CN1CC[C@]23c4c5ccc(O)c4O[C@@]2(C)C(=O)CC[C@@]3(OCCCc2ccccc2)[C@H]1C5 [Compound 17b, 4,5α-epoxy-3-hydroxy-5β,17-dimethyl-14β-[(3-phenylpropyl)oxy]morphinan-6-one hydrobromide] |  | 0.1 |  | 0.2 | 
COc1ccc2c(c1OC)[C@]13CCN(C)[C@H](C2)[C@]1(OCCCc1ccccc1)CCC(=O)[C@H]3C [Compound 32, 3,4-dimethoxy-5β,17-dimethyl-14β-[(3-phenylpropyl)oxy]morphinan-6-one hydrochloride] | 14 | 22 |  |  | analgesic activity (in words) (mice [1]): very high analgesic activity; analgesic activity (in words) (mice [2]): somewhat lower analgesic activity
C[N+]1(C)CC[C@]23c4c5ccc(O)c4O[C@H]2C(=O)CC[C@@]3(OCCCc2ccccc2)[C@H]1C5.[I-] [Compound 38, 4,5α-epoxy-3-hydroxy-17,17-dimethyl-6-oxo-14β-[(3-phenylpropyl)oxy]morphinanium-iodide] |  |  | 164 to 170 °C | 4.11 | ED50 (μg/rat, icv) (rats; [5]): 12 μg/rat; analgesic effect (in words) (rats; [4]): very high analgesic effect; ED50 (rats; [4]): 120 µg/kg
C[N@+]1(CC2CCCO2)CC[C@]23c4c5ccc(O)c4OC2C(=O)CCC3(OCCCc2ccccc2)C1C5.[I-] (stereo partly drawn) [Compound 40, (17R)-4,5α-epoxy-3-hydroxy-17-methyl-6-oxo-14β-[(3-phenylpropyl)oxy]-17-[(2-R,S-tetrahydrofurfuran-2-yl)methyl]morphinanium-iodide] |  |  | 156 to 159 °C | 0.37 | 
C=CC[N@@+]1(C)CC[C@]23c4c5ccc(O)c4O[C@H]2C(=O)CC[C@@]3(OCC)[C@H]1C5.[I-] [Compound 41, (17R)-17-allyl-4,5α-epoxy-14β-ethoxy-3-hydroxy-17-methyl-6-oxomorphinanium-iodide] |  |  | 130 to 134 °C | 2.32 | 
C=CC[N@@+]1(C)CC[C@]23c4c5ccc(O)c4O[C@H]2C(=O)CC[C@@]3(OC)[C@H]1C5.[I-] [Compound 42, (17R)-17-allyl-4,5α-epoxy-3-hydroxy-14β-methoxy-17-methyl-6-oxomorphinanium-iodide] |  |  | 178 to 181 °C | 5.93 | ability to overcome the blood-brain barrier (rats; inferred from icv versus sc activity): only to a limited degree; analgesic activity (in words) (rats; [5]): extremely active; ED50 (μg/rat, icv) (rats; [5]): 0.22 μg/rat; analgesic effect (in words) (rats; [4]): very high analgesic effect; ED50 (rats; [4]): 16 µg/kg
C=CC[N@+]1(C)CC[C@]23c4c5ccc(O)c4O[C@H]2C(=O)CC[C@@]3(OC)[C@H]1C5.[I-] [Compound 43, (17S)-17-allyl-4,5α-epoxy-3-hydroxy-14β-methoxy-17-methyl-6-oxomorphinanium-iodide] |  |  | > 140 °C | 1.33 | 
C[N@+]1(CC2CC2)CC[C@]23c4c5ccc(O)c4O[C@H]2C(=O)CC[C@@]3(OCCCc2ccccc2)[C@H]1C5.[I-] [Compound 48, (17R)-17-cyclopropylmethyl-4,5α-epoxy-3-hydroxy-17-methyl-6-oxo-14β-[(3-phenylpropyl)oxy]morphinanium-iodide] |  |  | 175 to 176 °C | 0.93 | antagonistic activity to μ-opioid receptors (in words) (μ-receptors; DAMGO): very high antagonistic activity
COc1ccc2c3c1O[C@H]1C(=O)CC[C@@]4(OCCCc5ccccc5)[C@@H](C2)[N@@+](C)(CC2CC2)CC[C@]314.[I-] [Compound 49, (17R)-17-cyclopropylmethyl-4,5α-epoxy-3-methoxy-17-methyl-6-oxo-14β-[(3-phenylpropyl)oxy]morphinanium-iodide] |  |  | 133 to 136 °C | 1.78 | 
CN1CC[C@]23c4c5cccc4O[C@H]2C(=O)CC[C@@]3(OCCCc2ccccc2)[C@H]1C5 [Compound 53, 4,5α-epoxy-17-methyl-14β-[(3-phenylpropyl)oxy]morphinan-6-one] | 0.4 | 3 | 105 to 109 °C |  | 
O=C1CC[C@@]2(OCCCc3ccccc3)[C@H]3Cc4cccc5c4[C@@]2(CC[N@H+]3CC2CC2)[C@H]1O5.[Cl-] [Compound 54, 17-(cyclopropylmethyl)-4,5α-epoxy-14β-[(3-phenylpropyl)oxy]morphinan-6-one hydrochloride] |  |  | 145 to 150 °C | 0.84 | 
O=C1CC[C@@]2(OCCCc3ccccc3)[C@H]3Cc4cccc(O)c4[C@@]2(CC[N@H+]3CC2CC2)C1.[Cl-] [Compound 55, 17-(cyclopropylmethyl)-4-hydroxy-14β-[(3-phenylpropyl)oxy]morphinan-6-one hydrochloride] |  |  | > 170 °C (dec.) | 0.4 | 
COc1cccc2c1[C@]13CC[N@@H+](CC4CC4)[C@H](C2)[C@]1(OCCCc1ccccc1)CCC(=O)C3.[Cl-] [Compound 56, 17-(cyclopropylmethyl)-4-methoxy-14β-[(3-phenylpropyl)oxy]morphinan-6-one hydrochloride] |  |  | 121 to 126 °C | 0.34 | 
CN1CC[C@]23c4c5ccc(O)c4O[C@H]2[C@@H](O)C=C[C@H]3[C@H]1C5 [Morphine, reference compound] |  |  |  |  | ED50 (rats; [4]): 1900 µg/kg
